In ChEMBL document CHEMBL6074684, “Structure-activity relationship study of novel evodiamine amino acid conjugates with potent anti-colorectal cancer efficacy” (Eur J Med Chem, 2025):
The source made the active and inactive calls. No cut-off for these calls is given here.

Key:
[1] = Apparent clearance during terminal phase in male Sprague-Dawley rat at 50 mg/kg, ip measured after 24 hrs by LC-MS/MS analysis; format: ADME, organism-based; details: in vivo, read-out: CLz/F (converted)
MGC-803 = test: Antiproliferative activity against human MGC-803 cells assessed as inhibition of cell growth incubated for 72 hrs by MTT assay; format: functional, cell-based; details: MGC-803, 72 h
[2] = Toxicity in male BALB/c nude mouse xenografted with human HT-29 cells assessed as tolerance at 40 mg/kg, ip administered once daily for 14 days; format: organism-based; details: in vivo, 336 h, time 14 day
SK-HEP1 = test: Antiproliferative activity against human SK-HEP1 cells assessed as inhibition of cell growth incubated for 72 hrs by MTT assay; format: functional, cell-based; details: SK-HEP1, 72 h
RKO [3] = test: Cell cycle arrest in human RKO cells assessed as accumulation of cells at G1 phase at 10 nM incubated for 24 hrs by […]PI staining based flow cytometric analysis (reference value: 35.29 %); format: functional
LoVo [4] = test: Antiproliferative activity against human LoVo cells assessed as inhibition of cell growth incubated for 72 hrs by MTT assay; format: functional, cell-based
[5] = Toxicity in male BALB/c nude mouse xenografted with human LoVo cells assessed as body weight loss at 40 mg/kg, ip administered once daily for 14 days; format: organism-based; details: in vivo, 336 h, time 14 day
HT-29 [6] = test: Antitumor activity against human HT-29 cells xenografted in male BALB/c nude mouse assessed as tumor growth inhibition at 40 mg/kg, ip administered once daily for 14 days relative to control; format: functional; details: HT-29, 336 h, time 14 day, read-out: TGI
[7] = Half-life in male Sprague-Dawley rat at 50 mg/kg, ip measured after 24 hrs by LC-MS/MS analysis; format: ADME, organism-based; details: in vivo
[8] = Potency index, ratio of topotecan IC50 to test compound IC50 for antiproliferative activity against human LoVo cells assessed as inhibition of cell growth incubated for 72 hrs by MTT assay; format: functional
Mitochondrial membrane [9] = test: Induction of mitochondrial membrane potential loss in human RKO cells assessed as decrease in TMRE positive cells at 10 to 90 nM incubated for 24 hrs by TMRE staining based flow cytometric analysis; format: cell membranes; details: dose 10-90 nM
LoVo [10] = test: Induction of morphological changes in human LoVo cells assessed as appearance of contracted nucleus incubated for 24 hrs by Giemsa staining based microscopic analysis; format: functional, cell-based; details: dose 10-90 nM
RKO [11] = test: Cell cycle arrest in human RKO cells assessed as accumulation of cells at G2 phase at 90 nM incubated for 24 hrs by […]PI staining based flow cytometric analysis (reference value: 20.07 %); format: functional
LoVo [12] = test: Induction of apoptosis in human LoVo cells assessed as apoptosis rate at 90 nM incubated for 24 hrs by Annexin V/PI staining based flow cytometric analysis (reference value: 4.71 %); format: functional
Huh-7 = test: Antiproliferative activity against human Huh-7 cells assessed as inhibition of cell growth incubated for 72 hrs by MTT assay; format: functional, cell-based; details: Huh-7, 72 h
Mitochondrial membrane [13] = test: Induction of mitochondrial membrane potential loss in human LoVo cells assessed as decrease in TMRE positive cells at 10 to 90 nM incubated for 24 hrs by TMRE staining based flow cytometric analysis; format: cell membranes; details: dose 10-90 nM
LoVo [14] = test: Antitumor activity against human LoVo cells xenografted in male BALB/c nude mouse assessed as tumor growth inhibition at 40 mg/kg, ip administered once daily for 14 days relative to control; format: functional; details: 336 h, time 14 day, read-out: TGI
HT-29 [15] = test: Antiproliferative activity against human HT-29 cells assessed as inhibition of cell growth incubated for 72 hrs by MTT assay; format: functional, cell-based; details: HT-29, 72 h
LoVo [16] = test: Antiproliferative activity against human LoVo cells assessed as reduction in cell viability measured after 24 hrs; format: functional, cell-based; details: dose 40-200 nmol/L
LoVo [17] = test: Induction of morphological changes in human LoVo cells assessed as appearance of condensed morphology incubated for 24 hrs by Giemsa staining based microscopic analysis; format: functional, cell-based; details: dose 10-90 nM
LoVo [18] = test: Cell cycle arrest in human LoVo cells assessed as accumulation of cells at G1 phase cells at 90 nM incubated for 24 hrs by […]PI staining based flow cytometric analysis (reference value: 29.69 %); format: functional
RKO [19] = test: Antiproliferative activity against human RKO cells assessed as inhibition of cell growth incubated for 72 hrs by MTT assay; format: functional, cell-based
[20] = AUC (0 to t) in male Sprague-Dawley rat at 50 mg/kg, ip measured after 24 hrs by LC-MS/MS analysis; format: ADME, organism-based; details: in vivo
LoVo [21] = test: Cell cycle arrest in human LoVo cells assessed as accumulation of cells at G1 phase cells at 10 nM incubated for 24 hrs by […]PI staining based flow cytometric analysis (reference value: 29.69 %); format: functional
RKO [22] = test: Cell cycle arrest in human RKO cells assessed as accumulation of cells at S phase at 90 nM incubated for 24 hrs by […]PI staining based flow cytometric analysis (reference value: 43.36 %); format: functional
[23] = Stability of compound at pH 4.6 assessed as residual rate measured after 2 days; format: physicochemical; details: buffer, time 2 day, read-out: Stability
RKO [24] = test: Cell cycle arrest in human RKO cells assessed as accumulation of cells at G1 phase at 90 nM incubated for 24 hrs by […]PI staining based flow cytometric analysis (reference value: 35.29 %); format: functional
LoVo [25] = test: Cell cycle arrest in human LoVo cells assessed as accumulation of cells at S phase cells at 30 nM incubated for 24 hrs by […]PI staining based flow cytometric analysis (reference value: 54.99 %); format: functional
LoVo [26] = test: Cell cycle arrest in human LoVo cells assessed as accumulation of cells at G2 phase cells at 10 nM incubated for 24 hrs by […]PI staining based flow cytometric analysis (reference value: 14.84 %); format: functional
RKO [27] = test: Induction of apoptosis in human RKO cells assessed as apoptosis rate at 90 nM incubated for 24 hrs by Annexin V/PI staining based flow cytometric analysis (reference value: 4.87 %); format: functional
MCF7 = test: Antiproliferative activity against human MCF7 cells assessed as inhibition of cell growth incubated for 72 hrs by MTT assay; format: functional, cell-based; details: MCF7, 72 h
[28] = Chemical stability of compound in McCoy's 5A cell culture medium containing 1 % DMSO assessed as retention time at 100 uM incubated for 24 hrs by HPLC analysis; format: physicochemical

## CC(C)(C)OC(=O)N[C@@H](CCC(N)=O)C(=O)Oc1ccc2[nH]c3c(c2c1)CCN1C(=O)c2cc(F)ccc2N(c2cccc(F)c2)[C@H]31
[1]
  CL/F: 57.2 mL/min/kg
MGC-803
  IC50: 120 nM
[2]
  Activity: Non-toxic
SK-HEP1
  IC50: 870 nM
RKO [3]
  Activity: 29.55%
LoVo [4]
  IC50: 70 nM
[5]
  Activity: Non-toxic
HT-29 [6]
  inhibition in vivo at 40 mg/kg: 70.1%
[7]
  half-life: 1.38 h
[8]
  Ratio IC50: 3.4
Mitochondrial membrane [9]
  Activity: Active
LoVo [10]
  Activity: Dose-dependent-effect
RKO [11]
  Activity: 21.72%
LoVo [12]
  Activity: 36.4%
Huh-7
  IC50: 370 nM
Mitochondrial membrane [13]
  Activity: Active
LoVo [14]
  inhibition in vivo at 40 mg/kg: 82.5%
HT-29 [15]
  IC50: 130 nM
LoVo [16]
  Activity: Dose-dependent-effect
LoVo [17]
  Activity: Dose-dependent-effect
LoVo [18]
  Activity: 25.84%
RKO [19]
  IC50: 50 nM
[20]
  AUC(0-t) at 24 h: 14600 ng·h/mL
LoVo [21]
  Activity: 26.62%
RKO [22]
  Activity: 49.95%
[23]
  remaining at 48 h: 67.8%
RKO [24]
  Activity: 26.83%
LoVo [25]
  Activity: 26.97%
LoVo [26]
  Activity: 27.11%
RKO [27]
  Activity: 12.25%
MCF7
  IC50: 600 nM
[28]
  Retention_time: 8.63 min
